Measured values: article PMC12032302, “A20 attenuates oxidized self-DNA-mediated inflammation in acute kidney injury” (Signal Transduction and Targeted Therapy, 2025)

Tests used:
[1] = system: A20; test: A20 protein expression in iBMDMs / BMDMs (immunoblot); assay type: cell-based, mouse
Protocol: (§1) For immunoblot analysis of kidney tissue, total protein lysates were prepared from renal tissue, which was ground in liquid nitrogen and then added to lysis buffer in a Total Protein Extraction Kit (Signalway Antibody, Cat#PE001). Samples were centrifuged at 12,000 rpm for 15 min at 4 °C, and the supernatant was collected immediately. For immunoblot analysis of cells, cultured cells after treatment were lysed with lysis buffer, which was premixed with protease and phosphatase inhibitors (Signalway Antibody, Cat#PE001). The samples were centrifuged at 12,000 r/min for 15 min at 4 °C, and the supernatant was collected immediately. Ultimately, both types of protein samples were then mixed with 4× Laemmli loading buffer (Bio-Rad, Cat#1610747) and denatured by boiling at 95 °C for 5 min.
(§2) Prepared protein samples were subjected to 6-15% SDS polyacrylamide gels and separated according to the protein concentrations. Then, the protein bands were transferred to polyvinylidene difluoride (PVDF) membranes by a wet transfer apparatus (Bio-Rad, USA). […] The protein bands were detected with an enhanced chemiluminescence kit (Millipore, Cat#WBKLS0500) using a gel imaging system (Bio-Rad, USA) for visualization and standardization of the amount of protein loaded. α-Tubulin was used as the internal control.

[2] = system: Tnfaip3 mRNA; test: Tnfaip3 mRNA in iBMDMs (quantitative PCR); assay type: cell-based, mouse; conditions: ox-dsDNA90 or CDNs, BAY11-7082 1 μM, 4 h pretreated, Fig. 4j,k, n = 3
Protocol: Total RNA was extracted from around 1 × 10^6 cultured cells per population and purified by employing an RNA simple Total RNA Kit (TIANGEN, Cat#DP419), Following column purification, RNA was immediately reversed to cDNA by implementing the PrimeScript reverse transcription reagent kit (Takara, RR047A) according to the manufacturer’s instructions. The concentration of RNA was measured with a NanoDrop 2000 (Thermo Fisher Scientific, USA). Reverse transcription polymerase chain reaction (qRT‒PCR) was performed using SYBR Premix Ex Taq (Takara, CAT#172-5124) in an ABI7500 real-time PCR system (Applied Biosystems, CA). The primer sequences are shown in Supplementary Table 2. Relative gene expression was presented as fold changes normalized by Gapdh using the 2^−ΔΔCt method.

[3] = system: AKI mice; test: tubular injury / renal injury of AKI mice (HE histology); assay type: in vivo, mouse
Protocol: (§3) LPS (Sigma, Cat#L2630) was dissolved in PBS to 2.5 mg/mL for one-time intraperitoneal 25 mg/kg injection; deoxyribonuclease I (DNase I, Sigma, Cat#SLBV1446) was dissolved in PBS to 1 mg/mL and injected intraperitoneally at a dose of 10 mg/kg at 4 h before cisplatin or AA I injection and every 24 h after injection. Disulfiram (MedChemExpress, CAS:97-77-8) was diluted in corn oil to 12.5 mg/mL and injected 50 mg/kg intraperitoneally every 24 h after cisplatin or AA I administration. Cu(II) (Sigma, Cat#344419) was dissolved in PBS to 30 µg/mL and administered intraperitoneally 6 h before disulfiram at a dose of 0.15 mg/kg; TNF-α (Peprotech, Cat#315-01 A) was dissolved in PBS to 10 µg/mL and injected at 100 µg/kg once through the caudal vein 24 h before cisplatin injection. […] MCC950 (MedChem Express, CAS:256373-96-3) was dissolved in PBS to 5 mg/mL and injected intraperitoneally at a dose of 50 mg/kg 12 h before cisplatin or AA I injection and every 12 h after injection; berberine (APExBIO, Cat#N1368) was dissolved in PBS to 5 mg/mL and 5 mg/kg injected intraperitoneally at 36, 24 and 12 h before cisplatin; […] To supervise the effects of various treatments on survival time and rate, the mice were observed, and survival curves were generated. To investigate the specific mechanisms, whole blood was retrieved from the orbit, serum was separated through centrifugation on the 4th day, and the mice were then sacrificed by cervical dislocation. Mice were randomly assigned in experiments, while there was no blinding during the animal experiments. Renal function was evaluated based on serum creatinine level and histological features. Serum creatinine was determined in the Clinical Pharmacology Lab, Clinical Trial Center, WCH, SCU. The kidneys were extracted from euthanized mice, immediately fixed with 4% paraformaldehyde, and embedded in paraffin. Furthermore, the samples were cut into 5 µm thick sections. These tissue samples were subjected to hematoxylin-eosin (HE) and […] according to standard protocols with HE reagent (Biosharp, Cat#BL702B, BL703B) and Masson reagent (Servicebio, Cat#G1006-100ML). The pathological changes were detected through optical microscopy, and the tubulointerstitial injury score was determined as previously reported.

[4] = system: AKI mice; test: overall therapeutic effect in AKI mice; assay type: in vivo, mouse; conditions: for alleviation of AKI compared with MCC950: DNase I, disulfiram vs NLRP3 inhibitor MCC950
Protocol: (§4) Aristolochic acid I sodium salt was dissolved in PBS to 1 mg/mL and injected intraperitoneally at a dose of 10 mg/kg (body weight) every 24 h for 3 days; cisplatin was dissolved in PBS to 1.5 mg/mL for one-time intraperitoneal 25 mg/kg injection; LPS (Sigma, Cat#L2630) was dissolved in PBS to 2.5 mg/mL for one-time intraperitoneal 25 mg/kg injection; deoxyribonuclease I (DNase I, Sigma, Cat#SLBV1446) was dissolved in PBS to 1 mg/mL and injected intraperitoneally at a dose of 10 mg/kg at 4 h before cisplatin or AA I injection and every 24 h after injection. Disulfiram (MedChemExpress, CAS:97-77-8) was diluted in corn oil to 12.5 mg/mL and injected 50 mg/kg intraperitoneally every 24 h after cisplatin or AA I administration. Cu(II) (Sigma, Cat#344419) was dissolved in PBS to 30 µg/mL and administered intraperitoneally 6 h before disulfiram at a dose of 0.15 mg/kg; TNF-α (Peprotech, Cat#315-01 A) was dissolved in PBS to 10 µg/mL and injected at 100 µg/kg once through the caudal vein 24 h before cisplatin injection. Metformin (Sigma, Cat#D150959) was dissolved in PBS to 5 mg/mL and injected intraperitoneally at a dose of 50 mg/kg 24 h before cisplatin or AA I injection and every 24 h after injection. MCC950 (MedChem Express, CAS:256373-96-3) was dissolved in PBS to 5 mg/mL and injected intraperitoneally at a dose of 50 mg/kg 12 h before cisplatin or AA I injection and every 12 h after injection; berberine (APExBIO, Cat#N1368) was dissolved in PBS to 5 mg/mL and 5 mg/kg injected intraperitoneally at 36, 24 and 12 h before cisplatin; A20-derived-peptide was dissolved in ddH2O to 3 mg/mL and injected intraperitoneally at a dose of 15 mg/kg 1 h before cisplatin. To supervise the effects of various treatments on survival time and rate, the mice were observed, and survival curves were generated. To investigate the specific mechanisms, whole blood was retrieved from the orbit, serum was separated through centrifugation on the 4th day, and the mice were then sacrificed by cervical dislocation. Mice were randomly assigned in experiments, while there was no blinding during the animal experiments.

[5] = system: GSDMD cleavage in iBMDMs; test: cleavage of GSDMD in iBMDMs after ox-self-DNA treatment (immunoblot); assay type: cell-based, mouse; conditions: AA-DNA with or without MCC950, Fig. 3i
Protocol: as §1, with “Ultimately, both types of protein samples were then mixed with 4× Laemmli loading buffer (Bio-Rad, Cat#1610747) and denatured by boiling at 95 °C for 5 min.” left out
as §2, with “concentrations.” for “concentrations. Then, the protein bands were transferred to polyvinylidene difluoride (PVDF) membranes by a wet transfer apparatus (Bio-Rad, USA).”
Self-DNA was isolated from the mouse kidney tissue using a DNeasy®Blood & Tissue Kit (QIAGEN, REF#69504) according to the manufacturer’s instructions. The isolated self-DNA were mixed with PicoGreen reagent, and then detected via employing SpectraMax iD3 microplate reader (Molecular Devices), with 502 nm incident ray and 523 nm emergent light. […]

[6] = system: AKI mice; test: survival of AKI mice; assay type: in vivo, mouse; conditions: n = 10 per group
Protocol: as §4

[7] = system: NEK7; conditions: cited from earlier work
Text: Furthermore, we investigated the potential therapeutic medicines targeting to NEK7 and evaluated their effects on alleviating AKI. […] A ...

[8] = system: AKI mice; test: renal fibrosis of AKI mice (Masson staining); assay type: in vivo, mouse; conditions: mice following injection of cisplatin; berberine 5 mg/kg i.p.; vs PBS
Protocol: LPS (Sigma, Cat#L2630) was dissolved in PBS to 2.5 mg/mL for one-time intraperitoneal 25 mg/kg injection; deoxyribonuclease I (DNase I, Sigma, Cat#SLBV1446) was dissolved in PBS to 1 mg/mL and injected intraperitoneally at a dose of 10 mg/kg at 4 h before cisplatin or AA I injection and every 24 h after injection. Disulfiram (MedChemExpress, CAS:97-77-8) was diluted in corn oil to 12.5 mg/mL and injected 50 mg/kg intraperitoneally every 24 h after cisplatin or AA I administration. Cu(II) (Sigma, Cat#344419) was dissolved in PBS to 30 µg/mL and administered intraperitoneally 6 h before disulfiram at a dose of 0.15 mg/kg; TNF-α (Peprotech, Cat#315-01 A) was dissolved in PBS to 10 µg/mL and injected at 100 µg/kg once through the caudal vein 24 h before cisplatin injection. […] Renal function was evaluated based on serum creatinine level and histological features. Serum creatinine was determined in the Clinical Pharmacology Lab, Clinical Trial Center, WCH, SCU. […] The pathological changes were detected through optical microscopy, and the tubulointerstitial injury score was determined as previously reported.

[9] = system: AKI mice; test: serum creatinine of AKI mice; assay type: in vivo, mouse; conditions: mice following injection of cisplatin; berberine 5 mg/kg i.p.; vs PBS
Protocol: as §3

[10] = system: IL-1β; test: serum IL-1β of AKI mice (ELISA); assay type: in vivo, mouse; conditions: Cis or AA I AKI mice; DNase I 10 mg/kg i.p.
Protocol: Aristolochic acid I sodium salt was dissolved in PBS to 1 mg/mL and injected intraperitoneally at a dose of 10 mg/kg (body weight) every 24 h for 3 days; cisplatin was dissolved in PBS to 1.5 mg/mL for one-time intraperitoneal 25 mg/kg injection; LPS (Sigma, Cat#L2630) was dissolved in PBS to 2.5 mg/mL for one-time intraperitoneal 25 mg/kg injection; deoxyribonuclease I (DNase I, Sigma, Cat#SLBV1446) was dissolved in PBS to 1 mg/mL and injected intraperitoneally at a dose of 10 mg/kg at 4 h before cisplatin or AA I injection and every 24 h after injection. Disulfiram (MedChemExpress, CAS:97-77-8) was diluted in corn oil to 12.5 mg/mL and injected 50 mg/kg intraperitoneally every 24 h after cisplatin or AA I administration. Cu(II) (Sigma, Cat#344419) was dissolved in PBS to 30 µg/mL and administered intraperitoneally 6 h before disulfiram at a dose of 0.15 mg/kg; TNF-α (Peprotech, Cat#315-01 A) was dissolved in PBS to 10 µg/mL and injected at 100 µg/kg once through the caudal vein 24 h before cisplatin injection. […]
To measure the levels of CXCL10, IFN-β, IL-1β, and IL-18, mouse serum or cell culture medium was collected and measured by ELISA (NeoBioscience, China) according to the manufacturer’s instructions.

Cc1ccc(S(=O)(=O)/C=C/C#N)cc1 [BAY11-7082]
increased expression of A20, protein level ([1]; iBMDMs, ox-dsDNA90 or CDNs, BAY11-7082 1 μM, 4 h pretreated, Fig. 4l): almost completely inhibited the increased expression of A20 at both the mRNA and protein levels | increased expression of A20 under ox-DNA stimulation ([1]; ox-DNA stimulation, BAY11-7082, discussion): abrogated | increased expression of A20, mRNA level [2]: almost completely inhibited the increased expression of A20 at both the mRNA and protein levels

CC(C)(O)c1coc(S(=O)(=O)NC(=O)Nc2c3c(cc4c2CCC4)CCC3)c1 [MCC950]
tubular injury (in words) ([3]; mice treated with nephrotoxic drugs (Cis, AA I), MCC950 50 mg/kg i.p.): attenuate tubular injury | progression of AKI ([4]; MCC950 50 mg/kg i.p.): significantly alleviated the progression of AKI | cleavage of GSDMD [5]: significantly reduced the cleavage of GSDMD | survival ([6]; mice treated with nephrotoxic drugs (Cis, AA I), MCC950 50 mg/kg i.p. 12 h before and every 12 h after): improved the survival

COc1ccc2cc3[n+](cc2c1OC)CCc1cc2c(cc1-3)OCO2 [berberine]
NEK7 activity (literature) [7]: inhibit NEK7 activity | renal injury (in words) ([3]; mice following injection of cisplatin, berberine 5 mg/kg i.p., vs PBS): attenuated renal injury | renal fibrosis [8]: decreased renal fibrosis | serum creatinine (in words) [9]: decreased serum creatinine | survival ([6]; mice following injection of cisplatin, berberine 5 mg/kg i.p. at 36, 24 and 12 h before, vs PBS): improved survival

CCN(CC)C(=S)SSC(=S)N(CC)CC [disulfiram, Disulfiram]
alleviation of AKI compared with MCC950 [4]: more effective in alleviating AKI than the NLRP3 inhibitor MCC950 | survival ([6]; Cis or AA I mice, disulfiram 50 mg/kg i.p. every 24 h, Cu(II) 0.15 mg/kg i.p. 6 h before disulfiram): improved survival with effects comparable to those of DNase I

deoxyribonuclease I [DNase I]
serum level of IL-1β (in words) [10]: significantly reduced serum level of IL-1β | therapeutic effect compared to Sting-knockout mice ([4]; DNase I 10 mg/kg i.p. 4 h before cisplatin or AA I and every 24 h after): more pronounced compared to that in Sting^−/− mice | alleviation of AKI compared with MCC950 [4]: more effective in alleviating AKI than the NLRP3 inhibitor MCC950
